Article PMC8185074, “Anchor extension: a structure-guided approach to design cyclic peptides targeting enzyme active sites” (Nature Communications, 2021)
Read-outs that look alike come from different tables or passages of the source. Peptide text beside a SMILES is read from it.

Assays:
Assay type in all cases: biochemical
[1] = molecular target: T1, HDAC2 (Homo sapiens, UniProt Q92769); assay: Initial HDAC2 IC50 estimate (BPS Biosciences HDAC fluorogenic assay kit)
T1 construct: purchased Reaction Biology Corporation (assay run by the CRO)
Description: Initial IC50 values were estimated using HDAC fluorogenic assay kits from BPS Biosciences (HDAC2, HDAC4, and HDAC6) following the protocol described in the kit. All the measures were performed in duplicates or triplicates. These measurements were done either on full range of concentrations (1:10 dilution from 1 µM to 100 pM) or on two concentrations only (20 nM and 200 nM) as an estimate of the range. […] Source Data are provided as a Source Data file.

[2] = molecular target: T1, HDAC2; assay: HDAC2 inhibition, full IC50 measurement (Reaction Biology; fluorogenic p53 peptide RHKK(Ac)AMC); conditions: for HDAC2 activity raw data (signal): single trial
Description: (§1) The assay was performed using 50 μM fluorogenic peptide from p53 residues 379-382 [RHKK(Ac)AMC] in a base reaction buffer of 50 mM Tris-HCl at pH 8.0, 137 mM NaCl, 2.7 mM KCl, 1 mM MgCl2, and freshly added 1 mg/ml BSA and 1% DMSO. Peptides were first dissolved in DMSO and then added to the reaction mixture with the enzyme using acoustic technique, enough to reach the desired concentration for that assay point. Peptide concentrations were calculated based on mass of lyophilized peptide and its molecular weight. The substrate was then added and incubated for 1 hour at 30 °C in a sealed container. After the incubation, developer was added to stop the reaction and develop color. Kinetic measurements were then performed for 20 min with Envision with 5 min intervals (Ex/Em = 360/460 nm). The endpoint after plateau was taken for IC50 measurement.
(§2) In cases where duplicate measures are used, average data is reported in the main text or Supplementary Tables.

[3] = molecular target: T2, HDAC3 (Homo sapiens, UniProt O15379); assay: HDAC3 inhibition, full IC50 measurement (Reaction Biology; fluorogenic p53 peptide RHKK(Ac)AMC); conditions: single trial
T2 construct: purchased Reaction Biology Corporation (assay run by the CRO)
Description: as §1, §2

[4] = molecular target: T3, HDAC6 (Homo sapiens, UniProt Q9UBN7); assay: HDAC6 inhibition, full IC50 measurement (Reaction Biology; fluorogenic p53 peptide RHKK(Ac)AMC); conditions: single trial
T3 construct: purchased Reaction Biology Corporation (assay run by the CRO)
T3 sequence (Q9UBN7 1-1215): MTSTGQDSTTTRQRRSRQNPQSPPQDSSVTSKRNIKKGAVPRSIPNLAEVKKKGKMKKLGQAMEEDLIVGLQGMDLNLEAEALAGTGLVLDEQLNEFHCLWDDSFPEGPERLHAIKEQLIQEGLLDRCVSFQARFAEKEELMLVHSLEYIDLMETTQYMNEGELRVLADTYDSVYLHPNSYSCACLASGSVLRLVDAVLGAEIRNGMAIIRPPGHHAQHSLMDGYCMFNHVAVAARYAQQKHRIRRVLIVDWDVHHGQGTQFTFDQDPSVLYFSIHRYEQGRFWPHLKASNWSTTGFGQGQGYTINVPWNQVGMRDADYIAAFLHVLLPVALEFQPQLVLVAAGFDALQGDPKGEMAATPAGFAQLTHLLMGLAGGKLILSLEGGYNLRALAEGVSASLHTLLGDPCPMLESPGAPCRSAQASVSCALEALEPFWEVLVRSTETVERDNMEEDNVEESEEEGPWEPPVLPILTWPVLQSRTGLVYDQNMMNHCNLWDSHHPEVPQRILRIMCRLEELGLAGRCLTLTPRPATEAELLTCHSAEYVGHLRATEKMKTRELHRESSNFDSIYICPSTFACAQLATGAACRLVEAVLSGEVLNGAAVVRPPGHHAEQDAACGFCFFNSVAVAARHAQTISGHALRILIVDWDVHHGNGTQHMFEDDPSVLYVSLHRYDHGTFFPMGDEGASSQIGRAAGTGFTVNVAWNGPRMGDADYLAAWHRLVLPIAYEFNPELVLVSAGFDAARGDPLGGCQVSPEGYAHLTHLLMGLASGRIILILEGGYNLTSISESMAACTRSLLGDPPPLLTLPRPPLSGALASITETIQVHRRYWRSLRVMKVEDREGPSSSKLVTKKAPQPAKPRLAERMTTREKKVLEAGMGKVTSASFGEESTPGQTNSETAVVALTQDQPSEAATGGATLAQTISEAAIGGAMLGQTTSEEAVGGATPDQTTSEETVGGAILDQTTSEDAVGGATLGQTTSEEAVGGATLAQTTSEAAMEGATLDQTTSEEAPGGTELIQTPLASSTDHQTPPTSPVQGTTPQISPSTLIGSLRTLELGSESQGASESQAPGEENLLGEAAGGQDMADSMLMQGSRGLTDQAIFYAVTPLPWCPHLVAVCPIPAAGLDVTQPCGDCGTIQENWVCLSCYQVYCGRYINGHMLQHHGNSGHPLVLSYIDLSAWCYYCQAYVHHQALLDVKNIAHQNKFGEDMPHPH
Description: as §1, §2

[5] = Supp. Table 4, rough estimates, for promising hits full measurements, read-out: HDAC2 activity (initial values for HDAC2 IC50)
[6] = Supplementary Dataset 2, read-out: HDAC2 activity (initial activity)

T1 sequence (Q92769 whole entry): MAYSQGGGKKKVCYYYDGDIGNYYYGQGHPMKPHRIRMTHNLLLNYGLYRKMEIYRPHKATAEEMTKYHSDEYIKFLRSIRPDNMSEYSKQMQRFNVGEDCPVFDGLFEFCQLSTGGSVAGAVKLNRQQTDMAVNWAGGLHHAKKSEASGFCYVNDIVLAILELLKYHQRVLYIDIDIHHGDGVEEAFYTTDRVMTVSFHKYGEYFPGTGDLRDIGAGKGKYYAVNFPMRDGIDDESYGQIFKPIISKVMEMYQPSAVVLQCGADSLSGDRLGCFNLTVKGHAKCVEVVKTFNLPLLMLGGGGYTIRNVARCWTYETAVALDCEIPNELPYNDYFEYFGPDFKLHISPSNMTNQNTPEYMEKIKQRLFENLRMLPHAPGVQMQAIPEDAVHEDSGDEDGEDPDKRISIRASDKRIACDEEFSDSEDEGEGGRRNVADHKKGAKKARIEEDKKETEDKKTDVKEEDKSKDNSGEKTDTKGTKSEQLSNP
T2 sequence (O15379 whole entry): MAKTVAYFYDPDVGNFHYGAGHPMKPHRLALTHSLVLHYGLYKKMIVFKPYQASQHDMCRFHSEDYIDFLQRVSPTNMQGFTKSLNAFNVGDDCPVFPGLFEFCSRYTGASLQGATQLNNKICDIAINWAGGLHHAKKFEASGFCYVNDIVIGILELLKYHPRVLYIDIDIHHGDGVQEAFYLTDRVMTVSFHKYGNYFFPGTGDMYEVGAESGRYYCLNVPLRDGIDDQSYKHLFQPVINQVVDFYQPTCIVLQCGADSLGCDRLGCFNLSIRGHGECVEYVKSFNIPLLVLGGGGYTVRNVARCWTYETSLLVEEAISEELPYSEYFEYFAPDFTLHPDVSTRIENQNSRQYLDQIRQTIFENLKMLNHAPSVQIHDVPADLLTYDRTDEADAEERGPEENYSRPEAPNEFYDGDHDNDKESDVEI
T2 sequence (Q9Y618 395-489 partner limits assumed): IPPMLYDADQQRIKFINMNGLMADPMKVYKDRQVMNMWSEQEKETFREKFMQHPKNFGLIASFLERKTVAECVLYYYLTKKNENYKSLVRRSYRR

N=C(N)NCCC[C@H]1NC(=O)[C@H]2CCCN2C(=O)[C@@H](Cc2c[nH]cn2)NC(=O)[C@H](Cc2ccc(O)cc2)NC(=O)[C@H](CCCCCS)NC(=O)[C@H](CCc2ccccc2)NC(=O)[C@H]2CCCN2C(=O)[C@H](CC(=O)O)NC(=O)[C@@H]2CCCN2C1=O [des3.2.3, SHA-Tyr-dHis-dPro-dArg-Pro-Asp-dPro-C27] (HELM PEPTIDE1{D.[dP].[O=C([C@H](CCc1ccccc1)N[*:1])[*:2]].[O=C([C@H](CCCCCS)N[*:1])[*:2]].Y.[dH].[dP].[dR].P}$PEPTIDE1,PEPTIDE1,1:R1-9:R2$$$V2.0)
IC50 ([1]; HDAC2 activity (initial activity), Supplementary Dataset 2): 92 nM | 2-Selectivity: fold potency for HDAC2 over HDAC6 [2]: 0.47 fold

N=C(N)NCCC[C@@H]1NC(=O)[C@@H](CCCNC(=N)N)NC(=O)[C@H]2CCCN2C(=O)[C@@H](CO)NC(=O)[C@H](Cc2ccc(O)cc2)NC(=O)[C@H](CCCCCS)NC(=O)[C@H](CCc2ccccc2)NC(=O)[C@@H](CCC(N)=O)NC(=O)[C@H](CC(=O)O)NC1=O [des3.3.2, SHA-Tyr-dSer-dPro-dArg-Arg-Asp-dGln-C27] (HELM PEPTIDE1{D.[dQ].[O=C([C@H](CCc1ccccc1)N[*:1])[*:2]].[O=C([C@H](CCCCCS)N[*:1])[*:2]].Y.[dS].[dP].[dR].R}$PEPTIDE1,PEPTIDE1,1:R1-9:R2$$$V2.0)
IC50 [1, 5]: 57 nM | IC50 [1, 6]: 50 nM | 2-Selectivity: fold potency for HDAC2 over HDAC6 [2]: 3 fold

N=C(N)NCCC[C@@H]1NC(=O)[C@@H](CCCNC(=N)N)NC(=O)[C@H]2CCCN2C(=O)[C@@H](Cc2c[nH]cn2)NC(=O)[C@H](Cc2ccc(O)cc2)NC(=O)[C@H](CCCCCS)NC(=O)[C@H](CCc2ccccc2)NC(=O)[C@@H](CCCCN)NC(=O)[C@H](CC(=O)O)NC1=O [des3.2.0, SHA-Tyr-dHis-dPro-dArg-Arg-Asp-dLys-C27] (HELM PEPTIDE1{D.[dK].[O=C([C@H](CCc1ccccc1)N[*:1])[*:2]].[O=C([C@H](CCCCCS)N[*:1])[*:2]].Y.[dH].[dP].[dR].R}$PEPTIDE1,PEPTIDE1,1:R1-9:R2$$$V2.0)
IC50 [1, 5]: 28 nM | IC50 [1, 6]: > 10 nM | 2-Selectivity: fold potency for HDAC2 over HDAC6 [2]: 0.53 fold

N=C(N)NCCC[C@H]1NC(=O)[C@H]2CCCN2C(=O)[C@@H](Cc2c[nH]cn2)NC(=O)[C@H](Cc2ccc(O)cc2)NC(=O)[C@H](CCCCCS)NC(=O)[C@H](CCc2ccccc2)NC(=O)[C@H](CCCCN)NC1=O [des3.2.5, SHA-Tyr-dHis-dPro-dArg-Lys-C27] (HELM PEPTIDE1{K.[O=C([C@H](CCc1ccccc1)N[*:1])[*:2]].[O=C([C@H](CCCCCS)N[*:1])[*:2]].Y.[dH].[dP].[dR]}$PEPTIDE1,PEPTIDE1,1:R1-7:R2$$$V2.0)
HDAC3 activity raw data (signal) ([3]; Conc. 1.00E-04 M): -14418 | HDAC3 activity raw data (signal) ([3]; Conc. 1.11E-05 M): 6191 | HDAC3 activity raw data (signal) ([3]; Conc. 1.23E-06 M): 36941 | HDAC3 activity raw data (signal) ([3]; Conc. 1.37E-07 M): 210610 | HDAC3 activity raw data (signal) ([3]; Conc. 1.52E-08 M): 383928 | HDAC3 activity raw data (signal) ([3]; Conc. 3.33E-05 M): -3999 | HDAC3 activity raw data (signal) ([3]; Conc. 3.70E-06 M): 13003 | HDAC3 activity raw data (signal) ([3]; Conc. 4.12E-07 M): 93966 | HDAC3 activity raw data (signal) ([3]; Conc. 4.57E-08 M): 285917 | HDAC3 activity raw data (signal) ([3]; Conc. 5.08E-09 M): 409923 | HDAC6 activity raw data (signal) ([4]; Conc. 1.00E-04 M): -6596 | HDAC6 activity raw data (signal) ([4]; Conc. 1.11E-05 M): -4177 | HDAC6 activity raw data (signal) ([4]; Conc. 1.23E-06 M): 2489 | HDAC6 activity raw data (signal) ([4]; Conc. 1.37E-07 M): 40408 | HDAC6 activity raw data (signal) ([4]; Conc. 1.52E-08 M): 187931 | HDAC6 activity raw data (signal) ([4]; Conc. 3.33E-05 M): -7167 | HDAC6 activity raw data (signal) ([4]; Conc. 3.70E-06 M): 1736 | HDAC6 activity raw data (signal) ([4]; Conc. 4.12E-07 M): 17454 | HDAC6 activity raw data (signal) ([4]; Conc. 4.57E-08 M): 101146 | HDAC6 activity raw data (signal) ([4]; Conc. 5.08E-09 M): 300973 | IC50 [1, 6]: 95 nM | 2-Selectivity: fold potency for HDAC2 over HDAC6 [2]: 0.40 fold | HDAC2 activity raw data (signal) ([2]; Conc. 1.00E-04 M): -10024 | HDAC2 activity raw data (signal) ([2]; Conc. 1.11E-05 M): -3664 | HDAC2 activity raw data (signal) ([2]; Conc. 1.23E-06 M): 23341 | HDAC2 activity raw data (signal) ([2]; Conc. 1.37E-07 M): 186535 | HDAC2 activity raw data (signal) ([2]; Conc. 1.52E-08 M): 378556 | HDAC2 activity raw data (signal) ([2]; Conc. 3.33E-05 M): -4061 | HDAC2 activity raw data (signal) ([2]; Conc. 3.70E-06 M): 7985 | HDAC2 activity raw data (signal) ([2]; Conc. 4.12E-07 M): 87059 | HDAC2 activity raw data (signal) ([2]; Conc. 4.57E-08 M): 320609 | HDAC2 activity raw data (signal) ([2]; Conc. 5.08E-09 M): 410566

N=C(N)NCCC[C@@H]1NC(=O)[C@@H](CCCNC(=N)N)NC(=O)[C@H]2CCCN2C(=O)[C@@H](Cc2c[nH]cn2)NC(=O)[C@H](Cc2ccc(O)cc2)NC(=O)[C@H](CCCCCS)NC(=O)[C@H](CCc2ccccc2)NC(=O)[C@H]2CCCN2C(=O)[C@H](CC(=O)O)NC1=O [des3.2.1, SHA-Tyr-dHis-dPro-dArg-Arg-Asp-dPro-C27] (HELM PEPTIDE1{D.[dP].[O=C([C@H](CCc1ccccc1)N[*:1])[*:2]].[O=C([C@H](CCCCCS)N[*:1])[*:2]].Y.[dH].[dP].[dR].R}$PEPTIDE1,PEPTIDE1,1:R1-9:R2$$$V2.0)
IC50 ([1]; HDAC2 activity (initial values for HDAC2 IC50), Supp. Table 4, rough estimates, for promising hits full measurements): 66 nM | 2-Selectivity: fold potency for HDAC2 over HDAC6 [2]: 0.44 fold

N=C(N)NCCC[C@H]1NC(=O)[C@H]2CCCN2C(=O)[C@@H](Cc2c[nH]cn2)NC(=O)[C@H](Cc2ccc(O)cc2)NC(=O)[C@H](CCCCCS)NC(=O)[C@H](CCc2ccccc2)NC(=O)[C@@H](CCCCN)NC(=O)[C@H](CC(=O)O)NC(=O)[C@@H]2CCCN2C1=O [des3.2.2, SHA-Tyr-dHis-dPro-dArg-Pro-Asp-dLys-C27] (HELM PEPTIDE1{D.[dK].[O=C([C@H](CCc1ccccc1)N[*:1])[*:2]].[O=C([C@H](CCCCCS)N[*:1])[*:2]].Y.[dH].[dP].[dR].P}$PEPTIDE1,PEPTIDE1,1:R1-9:R2$$$V2.0)
IC50 [1, 6]: 58 nM | 2-Selectivity: fold potency for HDAC2 over HDAC6 [2]: 0.41 fold
